# Values quoted from earlier work as cited in patent US20080241240A1, “COMBINED PHARMACEUTICAL FORMULATION WITH CONTROLLED-RELEASE COMPRISING DIHYDROPYRIDINE CALCIUM CHANNEL BLOCKERS AND HMG-COA REDUCTASE INHIBITORS” (HANALL Pharmaceutical Co., Ltd., priority 2006, published 2008).
# Conditions: orally administered as single pill
compound,measurement,value
"CCOC(=O)C1=C(COCCN)NC(C)=C(C(=O)OC)C1c1ccccc1Cl (stereo not shown) [Amlodipine, 3-ethyl-5-methyl-2-(2-aminoethoxymethyl)-4-(2-chlorophenyl)-1,4-dihydro-6-methyl-3,5-pyridinedicarboxylate]","remaining, present in blood",60%
